Measurements from US20250339547A1, “MET BCL-XL INHIBITOR ANTIBODY-DRUG CONJUGATES AND METHODS OF USE THEREOF” (Novartis AG, priority 2022, published 2025).

Legend:
Assay type in all cases: cell-based
CALU1 = assay: Lung cancer cell line viability, single agent or 1:1 combination (CTG 120h), Example 7; settings: Homo sapiens, Calu-1, 120 h, CALU1, CTG 120 h
Method: (§1) Cell lines were cultured in the media described above at 37° C. in a humidified atmosphere containing 5% CO2. Cells were seeded in 96 well clear bottom plates (96 well clear-bottom, white, Corning reference 3903) and exposed to the mAbs, mAbs mixture, ADCs or ADCs mixture as single agents or in 1:1 combination with Paclitaxel. When in 1:1 combination, both the combining partner (Paclitaxel) and the mAb, mAb mixture, ADC or ADC mixture were serially diluted (9 concentrations each, triplicates). Effect on cell viability was assessed after 5 days of incubation at 37° C./5% CO2 by quantification of cellular ATP levels using CellTiter-Glo reagent (Promega Ref: G7571) at 75 μL reagent/well. All the conditions were tested in triplicates. Luminescence was quantified on a multipurpose plate reader. IC50s were calculated using standard four-parametric curve fitting. IC50 is defined as the compound concentration at which the CTG signal is reduced to 50% of that measured for the control. Two independent experiments were performed (N1 and N2).

HCC366 = assay: as above; settings: HCC366, 120 h, HCC366, CTG 120 h
Method: as §1

HCC4006 = assay: as above; settings: Homo sapiens, HCC4006, 120 h, HCC4006, CTG 120 h
Method: as §1

HCC78 = assay: as above; settings: Homo sapiens, HCC78, 120 h, HCC78, CTG 120 h
Method: as §1

HCC827 = assay: as above; settings: Homo sapiens, HCC827, 120 h, HCC827, CTG 120 h
Method: as §1

LU65 = assay: as above; settings: Homo sapiens, Lu-65, 120 h, LU65, CTG 120 h
Method: as §1

NCI-H1838 = assay: as above; settings: Homo sapiens, NCI-H1838, 120 h, NCI-H1838, CTG 120 h
Method: as §1

NCI-H1975 = assay: as above; settings: Homo sapiens, NCI-H1975, 120 h, NCI-H1975, CTG 120 h
Method: as §1

NCI-H441 = assay: as above; settings: Homo sapiens, NCI-H441, 120 h, NCI-H441, CTG 120 h
Method: as §1

[1] = system: HCC78 lung cancer cell line; assay: HCC78 viability, single agent or 1:1 combination with Paclitaxel (CTG 120h), Example 8; settings: for effect on the viability: HCC-78, single agents, FIG. 3
Method: HCC78 lung cancer cell line was cultured in the media described above at 37° C. in a humidified atmosphere containing 5% CO2. Cells were seeded in 96 well clear bottom plates (96 well clear-bottom, white, Corning reference 3903) and exposed to the mAbs or ADCs as single agents or in 1:1 combination with Paclitaxel. When in 1:1 combination, both Paclitaxel and the mAb or ADC were serially diluted (9 concentrations each, triplicates). Effect on cell viability was assessed after 5 days of incubation at 37° C./5% CO2 by quantification of cellular ATP levels using CellTiter-Glo reagent (Promega Ref: G7571) at 75 μL reagent/well. All the conditions were tested in triplicates. Luminescence was quantified on a multipurpose plate reader. IC50s were calculated using standard four-parametric curve fitting. IC50 is defined as the compound concentration at which the CTG signal is reduced to 50% of that measured for the control. Two independent experiments were performed (N1 and N2).

AsPC-1 = assay: Pancreatic cancer cell line viability, single agent or 1:1 combination (CTG 120h), Example 10; settings: Homo sapiens, ASPC1, 120 h, AsPC-1, CTG 120 h
Method: (§2) Cell lines were cultured in the media described above at 37° C. in a humidified atmosphere containing 5% CO2. Cells were seeded in 96 well clear bottom plates (96 well clear-bottom, white, Corning reference 3903) and exposed to the mAbs or ADCs as single agents or in 1:1 combination with Paclitaxel, Trametinib or Gemcitabine. When in 1:1 combination, both the combining partner (Paclitaxel, Trametinib or Gemcitabine) and the mAb or ADC were serially diluted (9 concentrations each, triplicates). Effect on cell viability was assessed after 5 days of incubation at 37° C./5% CO2 by quantification of cellular ATP levels using CellTiter-Glo reagent (Promega Ref: G7571) at 75 μL reagent/well. All the conditions were tested in triplicates. Luminescence was quantified on a multipurpose plate reader. IC50s were calculated using standard four-parametric curve fitting. IC50 is defined as the compound concentration at which the CTG signal is reduced to 50% of that measured for the control. Two independent experiments were performed (N1 and N2).

BxPC-3 = assay: as above; settings: Homo sapiens, BXPC-3, 120 h, BxPC-3, CTG 120 h
Method: as §2

Hs766T = assay: as above
Method: as §2

KP-4 = assay: as above; settings: Homo sapiens, KP-4, 120 h, KP-4, CTG 120 h
Method: as §2

Panc 10.05 = assay: as above; settings: Homo sapiens, Panc1005, 120 h, Panc 10.05, CTG 120 h
Method: as §2

Cc1c(Nc2nc3ccccc3s2)nnc2c1CCCN2c1ccc(-c2cnn(C[C@]34C[C@]5(C)C[C@](C)(C3)C[C@@](OCCNCCCO)(C5)C4)c2C)c(C(=O)O)n1 [P25, 6-[3-(1,3-benzothiazol-2-ylamino)-4-methyl-6,7-dihydro-5H-pyrido[2,3-c]pyridazin-8-yl]-3-[1-[[3-[2-(3-hydroxypropylamino)ethoxy]-5,7-dimethyl-1-adamantyl]methyl]-5-methyl-pyrazol-4-yl]pyridine-2-carboxylic acid]
IC50 (CALU1; Mean): 14.6 nM | IC50 (CALU1; n1): 1.78 nM | IC50 (CALU1; n2): 14.6 nM | IC50 (HCC366; Mean): 29.4 nM | IC50 (HCC366; n1): 14.9 nM | IC50 (HCC366; n2): 43.8 nM | IC50 (HCC4006; Mean): 7460 nM | IC50 (HCC4006; n1): 7460 nM | IC50 (HCC4006; n2): > 10000 nM | IC50 (HCC78; Mean): 2260 nM | IC50 (HCC78; n1): 3220 nM | IC50 (HCC78; n2): 1310 nM | IC50 (HCC827; Mean): 108 nM | IC50 (HCC827; n1): 57.4 nM | IC50 (HCC827; n2): 158 nM | IC50 (LU65; Mean): > 10000 nM | IC50 (LU65; n1): 5610 nM | IC50 (LU65; n2): > 10000 nM | IC50 (NCI-H1838; Mean): 34 nM | IC50 (NCI-H1838; n1): 41.4 nM | IC50 (NCI-H1838; n2): 26.7 nM | IC50 (NCI-H1975; Mean): 9030 nM | IC50 (NCI-H1975; n1): 9030 nM | IC50 (NCI-H1975; n2): > 10000 nM | IC50 (NCI-H441; Mean): 1020 nM | IC50 (NCI-H441; n1): 1010 nM | IC50 (NCI-H441; n2): 1030 nM | effect on the viability [1]: induced a dose dependent decrease in the viability | IC50 (AsPC-1; mean): 244 nM | IC50 (AsPC-1; n1): 368 nM | IC50 (AsPC-1; n2): 121 nM | IC50 (BxPC-3; mean): 21800 nM | IC50 (BxPC-3; n1): 20800 nM | IC50 (BxPC-3; n2): 22800 nM | IC50 (Hs766T; mean): 1640 nM | IC50 (Hs766T; n1): 1900 nM | IC50 (Hs766T; n2): 1370 nM | IC50 (KP-4; mean): 17000 nM | IC50 (KP-4; n1): 14700 nM | IC50 (KP-4; n2): 19200 nM | IC50 (Panc 10.05; mean): 73.5 nM | IC50 (Panc 10.05; n1): 61.6 nM | IC50 (Panc 10.05; n2): 85.3 nM

CC(=O)O[C@H]1C(=O)[C@@]2(C)[C@H]([C@H](OC(=O)c3ccccc3)[C@]3(O)C[C@H](OC(=O)[C@H](O)[C@@H](NC(=O)c4ccccc4)c4ccccc4)C(C)=C1C3(C)C)[C@]1(OC(C)=O)CO[C@@H]1C[C@@H]2O [Paclitaxel, paclitaxel]
IC50 (CALU1; Mean): 25.6 nM | IC50 (CALU1; n1): 13.7 nM | IC50 (CALU1; n2): 37.4 nM | IC50 (HCC366; Mean): 7.45 nM | IC50 (HCC366; n1): 4 nM | IC50 (HCC366; n2): 10.9 nM | IC50 (HCC4006; Mean): 4.66 nM | IC50 (HCC4006; n1): 5.9 nM | IC50 (HCC4006; n2): 3.42 nM | IC50 (HCC78; Mean): 3.4 nM | IC50 (HCC78; n1): 2.52 nM | IC50 (HCC78; n2): 4.29 nM | IC50 (HCC827; Mean): 5.27 nM | IC50 (HCC827; n1): 4.11 nM | IC50 (HCC827; n2): 6.42 nM | IC50 (LU65; Mean): 29.7 nM | IC50 (LU65; n1): 32.4 nM | IC50 (LU65; n2): 27 nM | IC50 (NCI-H1838; Mean): > 300 nM | IC50 (NCI-H1838; n1): > 300 nM | IC50 (NCI-H1838; n2): > 300 nM | IC50 (NCI-H1975; Mean): 2.53 nM | IC50 (NCI-H1975; n1): 3.34 nM | IC50 (NCI-H1975; n2): 1.72 nM | IC50 (NCI-H441; Mean): 6.48 nM | IC50 (NCI-H441; n1): 9.2 nM | IC50 (NCI-H441; n2): 3.75 nM | Maximal effect on the viability (viability decrease) ([1]; HCC-78, FIG. 3): 80% | effect on the viability [1]: induced a dose dependent decrease in the viability | IC50 (AsPC-1; mean): 10.2 nM | IC50 (AsPC-1; n1): 12.4 nM | IC50 (AsPC-1; n2): 8.06 nM | IC50 (BxPC-3; mean): 0.93 nM | IC50 (BxPC-3; n1): 0.6 nM | IC50 (BxPC-3; n2): 1.25 nM | IC50 (Hs766T; mean): > 30000 nM | IC50 (Hs766T; n2): > 30000 nM | IC50 (KP-4; mean): 2.33 nM | IC50 (KP-4; n1): 0.47 nM | IC50 (KP-4; n2): 4.19 nM | IC50 (Panc 10.05; mean): 7.93 nM | IC50 (Panc 10.05; n1): 5.65 nM | IC50 (Panc 10.05; n2): 10.2 nM
